Here are results for four compounds from ChEMBL document CHEMBL1909046, “DrugMatrix in vitro pharmacology data”.

For assay [1], the target named is T1, Type-2 angiotensin II receptor (Homo sapiens, UniProt P50052). Also: in other assays of this panel Not Active means under 50% inhibition at 10 µM.
T1 sequence (P50052 whole entry): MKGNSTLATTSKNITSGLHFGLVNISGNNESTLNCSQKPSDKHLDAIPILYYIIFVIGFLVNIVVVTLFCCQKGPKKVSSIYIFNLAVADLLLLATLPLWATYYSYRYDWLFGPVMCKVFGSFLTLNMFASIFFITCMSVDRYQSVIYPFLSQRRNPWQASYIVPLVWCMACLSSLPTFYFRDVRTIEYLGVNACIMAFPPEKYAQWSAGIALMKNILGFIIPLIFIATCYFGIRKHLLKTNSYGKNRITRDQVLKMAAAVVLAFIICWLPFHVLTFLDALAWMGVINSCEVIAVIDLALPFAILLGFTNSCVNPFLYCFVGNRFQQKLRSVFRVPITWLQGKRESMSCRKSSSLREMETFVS
The format is cell-based. The following applies: cho-k1.

Assay [2] addresses T2, C-C chemokine receptor type 4 (Homo sapiens, UniProt P51679).
T2 sequence (P51679 whole entry): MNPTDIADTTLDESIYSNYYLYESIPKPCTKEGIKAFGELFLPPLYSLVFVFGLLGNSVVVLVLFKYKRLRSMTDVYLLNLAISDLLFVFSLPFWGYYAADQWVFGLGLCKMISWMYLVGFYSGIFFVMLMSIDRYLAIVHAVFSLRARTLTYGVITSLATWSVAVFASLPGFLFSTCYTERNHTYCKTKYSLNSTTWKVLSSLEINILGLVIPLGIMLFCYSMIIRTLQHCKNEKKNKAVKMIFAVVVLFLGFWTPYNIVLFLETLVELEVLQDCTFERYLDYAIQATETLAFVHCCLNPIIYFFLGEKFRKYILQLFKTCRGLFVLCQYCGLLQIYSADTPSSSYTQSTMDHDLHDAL
The format is cell membranes, Chem-1, Membrane.

The nature of assay [3]: DRUGMATRIX: Interleukin IL-1 radioligand binding (ligand: [125I] interleukin 1beta). Type of assay: cell membranes, Membrane. The following applies: nih3t3; Not Active = under 50% inhibition at 10 µM.
For assay [4], the target named is T3, Muscarinic acetylcholine receptor M5 (Homo sapiens, UniProt P08912). Also: in other assays of this panel Not Active means under 50% inhibition at 10 µM.
T3 sequence (P08912 whole entry): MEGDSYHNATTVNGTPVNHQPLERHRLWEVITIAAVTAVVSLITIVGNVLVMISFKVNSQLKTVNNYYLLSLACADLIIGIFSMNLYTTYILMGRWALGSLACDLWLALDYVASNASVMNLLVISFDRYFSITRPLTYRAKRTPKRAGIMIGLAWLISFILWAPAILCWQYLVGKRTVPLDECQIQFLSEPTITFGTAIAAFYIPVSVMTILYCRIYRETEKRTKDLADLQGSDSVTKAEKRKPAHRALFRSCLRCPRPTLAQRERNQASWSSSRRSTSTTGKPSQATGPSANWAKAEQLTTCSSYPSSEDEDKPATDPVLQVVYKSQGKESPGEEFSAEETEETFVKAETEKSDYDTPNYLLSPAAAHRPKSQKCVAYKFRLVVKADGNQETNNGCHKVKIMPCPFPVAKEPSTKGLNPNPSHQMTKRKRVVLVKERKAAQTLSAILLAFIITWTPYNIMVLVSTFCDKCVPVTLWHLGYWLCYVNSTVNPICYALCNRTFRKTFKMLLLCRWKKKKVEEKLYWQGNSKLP
Type of assay: cell membranes, CHO-K1, Membrane. Particulars: cho-k1.

Assay [5] deals with T4, Nitric oxide synthase, inducible (Mus musculus, UniProt P29477).
T4 sequence (P29477 whole entry): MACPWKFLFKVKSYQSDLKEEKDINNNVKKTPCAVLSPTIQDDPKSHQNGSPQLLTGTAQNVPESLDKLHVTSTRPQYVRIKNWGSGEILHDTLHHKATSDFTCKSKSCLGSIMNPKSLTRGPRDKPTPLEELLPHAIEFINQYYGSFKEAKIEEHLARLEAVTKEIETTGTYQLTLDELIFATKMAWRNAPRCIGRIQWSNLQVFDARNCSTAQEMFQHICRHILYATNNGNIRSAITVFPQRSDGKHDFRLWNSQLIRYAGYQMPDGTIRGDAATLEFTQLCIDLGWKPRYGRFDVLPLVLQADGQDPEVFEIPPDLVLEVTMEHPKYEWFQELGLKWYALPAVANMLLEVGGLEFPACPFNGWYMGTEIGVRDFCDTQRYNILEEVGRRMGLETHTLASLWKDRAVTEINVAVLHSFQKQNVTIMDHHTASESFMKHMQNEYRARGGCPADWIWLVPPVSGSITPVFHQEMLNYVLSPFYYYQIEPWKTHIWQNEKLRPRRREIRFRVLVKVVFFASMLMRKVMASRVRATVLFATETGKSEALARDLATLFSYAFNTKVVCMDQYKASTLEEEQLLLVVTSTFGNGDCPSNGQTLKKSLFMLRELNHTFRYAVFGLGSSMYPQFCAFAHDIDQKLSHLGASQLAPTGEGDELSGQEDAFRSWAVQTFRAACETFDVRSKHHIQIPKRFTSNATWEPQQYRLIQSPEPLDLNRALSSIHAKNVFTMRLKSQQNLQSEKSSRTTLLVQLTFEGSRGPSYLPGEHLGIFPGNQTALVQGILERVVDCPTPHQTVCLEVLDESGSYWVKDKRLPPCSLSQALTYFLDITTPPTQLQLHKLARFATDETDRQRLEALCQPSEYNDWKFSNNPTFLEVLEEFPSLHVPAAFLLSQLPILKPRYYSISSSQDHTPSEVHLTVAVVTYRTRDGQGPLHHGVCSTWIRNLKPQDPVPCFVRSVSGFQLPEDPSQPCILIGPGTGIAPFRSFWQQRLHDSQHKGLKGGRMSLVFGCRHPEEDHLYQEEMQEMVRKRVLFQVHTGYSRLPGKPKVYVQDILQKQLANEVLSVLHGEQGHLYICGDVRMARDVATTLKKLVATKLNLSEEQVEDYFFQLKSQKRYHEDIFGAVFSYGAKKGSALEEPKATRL
The arrangement: species or system Escherichia coli.

Assay [6] has as its target Delta-type opioid receptor (Homo sapiens, UniProt P41143). The format is cell membranes, HEK293, Membrane. The following applies: hek293. Also: in other assays of this panel Not Active means under 50% inhibition at 10 µM.
Assay [7] deals with Tyrosine-protein kinase Fyn (Homo sapiens, UniProt P06241). In words: biochemical. The format is cell-based, Insect cells. Particulars: insect cells.
Sequence of Tyrosine-protein kinase Fyn (P06241 whole entry): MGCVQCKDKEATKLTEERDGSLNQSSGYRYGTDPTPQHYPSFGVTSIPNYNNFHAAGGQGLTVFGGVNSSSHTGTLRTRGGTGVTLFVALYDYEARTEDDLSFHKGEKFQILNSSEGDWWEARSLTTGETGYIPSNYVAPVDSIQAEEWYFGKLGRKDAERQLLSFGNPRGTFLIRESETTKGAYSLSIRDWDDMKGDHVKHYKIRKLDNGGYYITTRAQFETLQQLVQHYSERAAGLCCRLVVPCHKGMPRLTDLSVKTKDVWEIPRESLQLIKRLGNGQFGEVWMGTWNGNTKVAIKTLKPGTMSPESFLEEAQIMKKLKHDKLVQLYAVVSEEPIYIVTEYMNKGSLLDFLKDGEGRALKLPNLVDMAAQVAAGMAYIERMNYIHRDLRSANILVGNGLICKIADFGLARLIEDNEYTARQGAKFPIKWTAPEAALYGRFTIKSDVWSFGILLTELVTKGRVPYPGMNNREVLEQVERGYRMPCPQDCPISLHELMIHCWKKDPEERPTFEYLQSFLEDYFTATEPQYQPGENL

Sequence of Delta-type opioid receptor (P41143 whole entry): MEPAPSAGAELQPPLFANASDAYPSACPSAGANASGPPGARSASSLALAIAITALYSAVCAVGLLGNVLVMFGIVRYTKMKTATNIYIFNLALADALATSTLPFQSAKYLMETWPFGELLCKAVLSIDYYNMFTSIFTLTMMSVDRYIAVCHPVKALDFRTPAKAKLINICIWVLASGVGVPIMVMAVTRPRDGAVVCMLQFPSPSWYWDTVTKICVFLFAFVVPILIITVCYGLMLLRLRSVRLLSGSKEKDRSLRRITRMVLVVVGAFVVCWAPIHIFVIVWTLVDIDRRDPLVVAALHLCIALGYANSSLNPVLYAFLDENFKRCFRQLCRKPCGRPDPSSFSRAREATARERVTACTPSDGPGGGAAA

As a reminder, the IC50 is the concentration that gives 50% inhibition. For orientation: Ki means a measure of affinity in units of concentration, obtained from inhibition or displacement. `C1CCN2C[C@@H]3C[C@@H](CN4CCCC[C@@H]34)[C@H]2C1` [SPARTEINE]: the IC50 result in assay [1], in assay [2] (chem-1), in assay [3], in assay [4], in assay [5] and in assay [6] was “Not Active” each time. The 50% inhibitory concentration (IC50) entry in assay [7] is “Not Active”. In assay [3], the Ki entry was “Not Active”.
Consider `CO[C@@H]1[C@@H](OC)[C@H](C)[C@@](O)(CC(=O)O)O[C@H]1[C@H](C)[C@H]1O[C@@]2(CC[C@@](C)([C@H]3CC[C@@](C)([C@@H]4O[C@@H]([C@H]5O[C@](C)(O)[C@H](C)C[C@@H]5C)C[C@@H]4O[C@@H]4C[C@H](OC)[C@@H](OC)[C@H](C)O4)O3)O2)C[C@H](O)[C@H]1C.N` [MADURAMICIN], for which the concentration for half-maximal inhibition (IC50) result in assay [1], in assay [2] (chem-1), in assay [3], in assay [4], in assay [5] and in assay [6] was “Not Active” throughout. For the same compound, the concentration for half-maximal inhibition (IC50) result in assay [7] was “Not Active”. Moreover, the inhibition constant (Ki) entry in assay [3] was “Not Active”.
On to `CC(N)C12CC3CC(CC(C3)C1)C2` (stereo not drawn) [RIMANTADINE], for which the 50% inhibitory concentration (IC50) result in assay [1], in assay [2] (chem-1), in assay [3], in assay [4], in assay [5] and in assay [6] was “Not Active” throughout. Also, in assay [7], the IC50 result is “Not Active”. For the same compound, in assay [3], the inhibition constant Ki entry was “Not Active”.
For `CCN(CC)C(=S)SSC(=S)N(CC)CC`, the IC50 entry in assay [1] was “Not Active”; in assay [2] (read-out: IC50), 8.4 µM; in assay [3], “Not Active”; in assay [4], “Not Active”; in assay [5], “Not Active”; in assay [6], “Not Active”. The IC50 result in assay [7] is given as “Not Active”. For the same compound, the figures for the Ki in assay [2] (read-out: Ki) and in assay [3] were 4.4 µM and “Not Active”, respectively.
